Like-named read-outs stand apart in the source and are kept apart here. Positions of bridges follow the written chain, without caps; N, C: chain ends. Non-standard residues stand in square brackets, D forms with d. Residues, ends and D or L forms follow the SMILES beside them. *: point of attachment. Myristoyl = CCCCCCCCCCCCCC(=O)*; R8 = C=CCCCCCC[C@@](C)(N)C(=O)O; R5 = C=CCCC[C@@](C)(N)C(=O)O; S5 = C=CCCC[C@](C)(N)C(=O)O
Key:
trypsin = target: T1, trypsin (Bos taurus, UniProt P00760); test: In vitro trypsin digest assay (trypsin-agarose beads, LC-MS); assay type: in vitro ADME; settings: trypsin-agarose beads in physiological buffer, read-out: t1/2 in trypsin digest (protease resistance) (converted)
T1 construct: purchased ThermoFisher
T1 sequence (P00760 24-246): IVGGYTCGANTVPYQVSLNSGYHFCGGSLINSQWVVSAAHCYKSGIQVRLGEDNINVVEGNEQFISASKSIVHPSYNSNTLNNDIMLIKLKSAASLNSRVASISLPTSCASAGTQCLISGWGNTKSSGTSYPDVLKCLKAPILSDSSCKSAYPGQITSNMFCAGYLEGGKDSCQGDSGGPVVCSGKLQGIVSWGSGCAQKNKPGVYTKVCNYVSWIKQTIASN
Protocol: Assays were performed using trypsin-agarose beads (ThermoFisher) and measurement of peptide concentration using LC-MS. Peptide half-lives were calculated using GraphPad Prism software.
Trypsin-agarose beads were used to test the potential cleavage of peptides in a physiological buffer and LC-MS was used as the analytical method to determine peptide concentration.

[1] = tested on: MDA-MB-453 breast cancer cells; test: Flow cytometry-based cell permeability assay; settings: MDA-MB-453 cells, 10 μM, compared to Rhodamine only control
Protocol: (§1) B. Competition FP experiment with 1907 showing inhibition of TAMRA-LD2 binding to FAT. C. SPR binding and selectivity analysis using WT FAT and Mutant FAT (L994E, 1936A) at the helix-protein interface. D. Flow cytometry analysis of Rhodamine-1907 (10 μM) cellular uptake in MDA-MB-453 breast cancer cells. E. Boyden-chamber invasion assays in SK-MEL-103 melanoma cells. F. 3D Matrigel-on-top proliferation assays in SK-MEL-103 melanoma cells.
To further evaluate the activity of 1907, experiments were conducted that tested the peptide in a flow cytometry-based cell permeability assay. […] Experiments were also conducted to test the cellular efficacy in SK-MEL-103 melanoma cells.
Flow cytometry assays performed on the Canto II flow cytometer (BD Biosciences) were utilized to measure cellular uptake of TAMRA-tagged peptides. In brief, the instrument was properly gated using cells treated with TAMRA-only as a positive control. Also, cells treated with untagged peptide were used as a negative control to rule out non-specific signal. Cells were treated with TAMRA-tagged peptides for a duration of 2 h-48 h to measure cellular uptake. Permeability of peptide was reported as % positivity relative to TAMRA positive control and mean fluorescence intensity (MFI).

[2] = tested on: SK-MEL-103 melanoma cells; test: 3D Matrigel-on-top proliferation assay; assay type: cell-based; settings: SK-MEL-103 melanoma cells, 3D Matrigel-on-top
Protocol: as §1
B. 3D structure of negative control molecule (UACC-2020). C. 3D Matrigel-on-top cell proliferation data of stapled peptides in SK-MEL-103 melanoma cells.
A negative control myristoylated peptide (2020) was designed and synthesized based on non-active molecule 2014. Experiments were conducted to test the efficacy of these peptides in 3D proliferation assays using SK-MEL-103 melanoma cells. […] Furthermore, 2012 had no effects on the proliferation of normal HUVEC cells (IC50=NA) (FIG. 7).

[3] = target: T2, FAK FAT domain (paxillin-FAT binding) (Homo sapiens, UniProt Q05397); test: Competition fluorescence polarization (FP) assay, inhibition of TAMRA-LD2 binding to FAT; settings: read-out: FP Ki
T2 construct: FP Buffer containing 20 μM FAT and 0.1 μM TAMRA-LD2
T2 sequence (Q05397 914-1045 limits assumed): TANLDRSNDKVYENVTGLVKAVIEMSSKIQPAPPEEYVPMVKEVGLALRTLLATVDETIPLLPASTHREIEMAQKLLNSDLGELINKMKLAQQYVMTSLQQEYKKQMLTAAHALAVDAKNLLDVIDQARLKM
Protocol: The FP assay buffer used was 20 mM Tris, 200 mM NaCl, 0.05% β-me, 0.1% Triton X-100, 5% glycerol, and 1× Halt protease inhibitor cocktail. […] Bodipy TMR FP optical module (2100-4100) was used as the mirror.
Wells with no FAT were used as a baseline value which was subtracted from the raw values to produce ΔmP values. The plate was read at every hour for four hours to test for time differences in IC50. The titration data was processed through GraphPad Prism to produce a dose response curve and a calculated IC50 with standard error (SE). A four-parameter dose-response inhibition model was utilized and the bottom fit was constrained to the lower plateau of the curve. Ki was determined from the following calculation:
P0 is the concentration of free protein and KD is calculated from the saturation curve. 150 is calculated by the following equation:
where PT is the total protein concentration, LT is the total labeled-ligand concentration, P0 is the positive root of P0^2+(KD+LT)*P0−PT, PL0=P−P0, PL50=PL0/2, L0=LT-PL0, and L50=LT-PL50.

[4] = target: T3, FAK FAT domain (biotinylated Avitag-FAT protein) (Homo sapiens, UniProt Q05397); test: Surface plasmon resonance (SPR) binding to immobilised FAT protein; settings: for Kd: FAT protein immobilised, peptide 200 μM-0.01 μM, 1:1 binding model, read-out: SPR KD
T3 construct: biotinylated Avitag-FAT protein was diluted in running buffer
T3 sequence (Q05397 914-1045 limits assumed): T2 sequence (Q05397 914-1045 limits assumed)
Protocol: SPR binding studies were performed on a ForteBio Pioneer FE SPR system. In brief, a SADH Streptavidin in Dextran Hydrogel biosensor (ForteBio) was docked onto the flow cell and preconditioned with two injections of 10 mM NaOH, 1 M NaCl for 1 min at 50 μL/min. […] Empty channel 2 served as the reference control. After achieving a stable baseline, a concentration series (200 μM-0.01 μM) of peptide was prepared in final running buffer (100 mM Tris-HCl, 200 mM NaCl, 0.05% Tween-20, 5% DMSO) and injected using the OneStep gradient injection method at a flow rate of 75 μL/min. […] Raw SPR data were appropriately processed in Qdat software (ForteBio) by normalizing the baseline prior to injection, aligning the channels, subtraction of the reference channel, and blank subtraction. Kinetic data were fitted to a pseudo-first order 1:1 interaction binding model using to calculate KD. In addition, a steady-state model and Req data points were used to validate the binding affinity. Visual inspection of the SPR sensograms was performed to verify appropriate model fitting, lack of mass transport effects, return to baseline, and lack of irregular kinetics.

[5] = target: T3, FAK FAT domain (biotinylated Avitag-FAT protein); test: as above; settings: two-site binding model
[6] = target: T4, biotinylated Avitag-FAT protein (UniProt Q05397 919-1052, limits assumed, biotinylated (Avitag)); test: SPR, biotinylated Avitag-FAT immobilised
T4 construct: domain: FAT; Immobilised on a streptavidin sensor for SPR; also called WT FAT; FAT domain of FAK; not shown: Avitag
T4 sequence (looked up): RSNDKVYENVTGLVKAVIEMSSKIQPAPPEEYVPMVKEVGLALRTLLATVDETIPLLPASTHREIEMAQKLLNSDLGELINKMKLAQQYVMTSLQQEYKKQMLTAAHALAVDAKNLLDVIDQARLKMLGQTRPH
Protocol: SPR binding studies were performed on a ForteBio Pioneer FE SPR system. In brief, a SADH Streptavidin in Dextran Hydrogel biosensor (ForteBio) was docked onto the flow cell and preconditioned with two injections of 10 mM NaOH, 1 M NaCl for 1 min at 50 μL/min. […] Empty channel 2 served as the reference control. After achieving a stable baseline, a concentration series (200 μM-0.01 μM) of peptide was prepared in final running buffer (100 mM Tris-HCl, 200 mM NaCl, 0.05% Tween-20, 5% DMSO) and injected using the OneStep gradient injection method at a flow rate of 75 μL/min. 3% sucrose was utilized as a bulk standard control for OneStep injection and a DMSO calibration curve was performed using a concentration range of 3.5% to 6.5% DMSO. Raw SPR data were appropriately processed in Qdat software (ForteBio) by normalizing the baseline prior to injection, aligning the channels, subtraction of the reference channel, and blank subtraction. Kinetic data were fitted to a pseudo-first order 1:1 interaction binding model using to calculate KD. In addition, a steady-state model and Req data points were used to validate the binding affinity. Visual inspection of the SPR sensograms was performed to verify appropriate model fitting, lack of mass transport effects, return to baseline, and lack of irregular kinetics.

CC(=O)N[C@@H](CC(N)=O)C(=O)N[C@@H](CC(C)C)C(=O)N[C@@H](CO)C(=O)N[C@@H](CCC(=O)O)C(=O)N[C@@H](CC(C)C)C(=O)N[C@@H](CC(=O)O)C(=O)N[C@@H](CCCNC(=N)N)C(=O)N[C@@H](CC(C)C)C(=O)N[C@@H](CC(C)C)C(=O)N[C@@H](CC(C)C)C(=O)N[C@@H](CCC(=O)O)C(=O)N[C@@H](CC(C)C)C(=O)N[C@@H](CC(N)=O)C(N)=O [Peptide 1967, reference compound]
half-life (trypsin): 41.4 min

CCN(CC)c1ccc2c(-c3ccccc3C(=O)NCCC(=O)N[C@@H](CC(N)=O)C(=O)N[C@@H](CC(C)C)C(=O)N[C@]3(C)CCCCCCC=CCCC[C@@](C)(C(=O)N[C@@H](CCC(=O)O)C(=O)N[C@@H](CC(C)C)C(=O)N[C@@H](CC(N)=O)C(N)=O)NC(=O)[C@H](CC(C)C)NC(=O)[C@H](CC(C)C)NC(=O)[C@H](CCCNC(=N)N)NC(=O)[C@H](CC(=O)O)NC(=O)[C@H](CC(C)C)NC(=O)[C@H](CCC(=O)O)NC3=O)c3ccc(=[N+](CC)CC)cc-3oc2c1 [Peptide 2016, RhoB-1907]
cellular uptake / crossing of the cell membrane [1]: successfully crossed the cell membrane

CCCCCCCCCCCCCC(=O)N[C@@H](CC(N)=O)C(=O)N[C@@H](CC(C)C)C(=O)N[C@]1(C)CCCCCCC=CCCC[C@@](C)(C(=O)N[C@@H](CCC(=O)O)C(=O)N[C@@H](CCC(=O)O)C(=O)N[C@@H](CC(N)=O)C(N)=O)NC(=O)[C@H](CC(C)C)NC(=O)[C@H](CC(C)C)NC(=O)[C@H](CCCNC(=N)N)NC(=O)[C@H](CC(=O)O)NC(=O)[C@H](CCC(=O)O)NC(=O)[C@H](CCC(=O)O)NC1=O [Peptide 2020, Myristoyl-NLR8EEDRLLS5EEN-NH2] (Myristoyl-NL[R8]EEDRLL[S5]EEN-NH2; staple 3-10)
3D proliferation IC50 [2]: no effect | Ki [3]: > 1250 µM | Kd [4]: > 200 µM

CC(=O)N[C@@H](CC(N)=O)C(=O)N[C@]1(C)CCCC=CCCC[C@@](C)(C(=O)N[C@@H](CC(=O)O)C(=O)N[C@@H](CCCNC(=N)N)C(=O)N[C@@H](CC(C)C)C(=O)N[C@@H](CC(C)C)C(=O)N[C@@H](CC(C)C)C(=O)N[C@@H](CCC(=O)O)C(=O)N[C@@H](CC(C)C)C(=O)N[C@@H](CC(N)=O)C(N)=O)NC(=O)[C@H](CCC(=O)O)NC(=O)[C@H](CO)NC1=O [Peptide 2024] (Ac-N[R5]SE[S5]DRLLLELN-NH2; staple 2-5)
Ki [3]: 412 µM | Kd [4]: > 200 µM | binding and inhibitory properties (SPR/FP) in words, compared to 1907 ([4]; SAR discussion of SPR and FP data): did not show much activity compared to 1907

CC(=O)N[C@@H](CC(N)=O)C(=O)N[C@@H](CC(C)C)C(=O)N[C@]1(C)CCCCCCC=CCCC[C@@](C)(C(=O)N[C@@H](CCC(=O)O)C(=O)N[C@@H](CC(C)C)C(=O)N[C@@H](CC(N)=O)C(N)=O)NC(=O)[C@H](CC(C)C)NC(=O)[C@H](CC(C)C)NC(=O)[C@H](CCCCN)NC(=O)[C@H](CC(=O)O)NC(=O)[C@H](CC(C)C)NC(=O)[C@H](CCC(=O)O)NC1=O [Peptide 2028, Ac-NLR8ELDKLLS5ELN-NH2] (Ac-NL[R8]ELDKLL[S5]ELN-NH2; staple 3-10)
Kd ([5]; SPR KD (1), site (1)): 1.36 µM | Kd ([5]; read-out: SPR KD (2), site (2)): 10.9 µM

B1: 1920 (peptide)
peptide: Ac-SLGSNL[R8]ELDRLL[S5]ELNAVQH-NH2
modifications: staple 7-14
SMILES: CC(=O)N[C@@H](CO)C(=O)N[C@@H](CC(C)C)C(=O)NCC(=O)N[C@@H](CO)C(=O)N[C@@H](CC(N)=O)C(=O)N[C@@H](CC(C)C)C(=O)N[C@]1(C)CCCCCCC=CCCC[C@@](C)(C(=O)N[C@@H](CCC(=O)O)C(=O)N[C@@H](CC(C)C)C(=O)N[C@@H](CC(N)=O)C(=O)N[C@@H](C)C(=O)N[C@H](C(=O)N[C@@H](CCC(N)=O)C(=O)N[C@@H](Cc2c[nH]cn2)C(N)=O)C(C)C)NC(=O)[C@H](CC(C)C)NC(=O)[C@H](CC(C)C)NC(=O)[C@H](CCCNC(=N)N)NC(=O)[C@H](CC(=O)O)NC(=O)[C@H](CC(C)C)NC(=O)[C@H](CCC(=O)O)NC1=O
Kd [6]: 6.95 µM

Ac-[R8]ELDRLL[S5]-NH2 (staple 1-8) [2011]
Kd [6]: > 200 µM

B2: 2014 (peptide)
peptide: Ac-NL[R8]EEDRLL[S5]EEN-NH2
modifications: staple 3-10
SMILES: CC(=O)N[C@@H](CC(N)=O)C(=O)N[C@@H](CC(C)C)C(=O)N[C@]1(C)CCCCCCC=CCCC[C@@](C)(C(=O)N[C@@H](CCC(=O)O)C(=O)N[C@@H](CCC(=O)O)C(=O)N[C@@H](CC(N)=O)C(N)=O)NC(=O)[C@H](CC(C)C)NC(=O)[C@H](CC(C)C)NC(=O)[C@H](CCCNC(=N)N)NC(=O)[C@H](CC(=O)O)NC(=O)[C@H](CCC(=O)O)NC(=O)[C@H](CCC(=O)O)NC1=O
notes: non-active molecule
Kd [6]: > 200 µM
